The text below walks through data of paper PMC3189933, “Acylpeptide Hydrolase Inhibition as Targeted Strategy to Induce Proteasomal Down-Regulation” (PLoS ONE, 2011).

Where a SMILES comes first, the peptide text is derived from it. Where no end group is shown, it is not given here. The star is where a group is joined. Cbz = O=C(OCc1ccccc1)*

Data set [1] has as its system polyubiquitinylated proteins in Caco-2 cells. Briefly: Protein ubiquitinylation in Caco-2 cells (immunoblot). Particulars: 48 h, 200 µM SsCEI 4 or t10c12-CLA, mixture, 100 µM ebelactone, 10 µM MG132, species 66 kDa to 160 kDa. The class given is cell-based, human. An excerpt:
The following antibodies were used: anti-APEH antibody (sc-102311; Santa Cruz Biotechnology); anti-NF-κB/p65 antibody (Thermo Scientific); anti-p21Waf1 antibody (Exbio); pan Ab-5 anti-actin antibody (clone ACTN05, Thermo Scientific); and monoclonal antibodies against polyubiquitinylated proteins conjugated with horseradish peroxidase (FK2H, Enzo, Life Science). The ΔF508CFTR-3HA protein was detected with an anti HA monoclonal antibody (Covance).
(A western blot detects proteins with antibodies after separation by electrophoresis.)

For data set [2], the system named is APEH in Caco-2 cells. Briefly: APEH activity in Caco-2 cells. Particulars: differentiated Caco-2 cells.
Experimental: Porcine liver APEH activity was measured spectrophotometrically using the chromogenic substrate acetyl-Ala-pNA (Bachem). The reaction mixture (1 mL) containing pure APEH (38 ng) or an appropriate amount of cell extract in 50 mM Tris-HCl buffer pH 7.5 (Tris Buffer), was preincubated at 37°C for 2 min. Then, 1 mM acetyl-Ala-pNA was added and the release of p-nitroanilide (ε410 = 8800 M-1 cm-1) was measured by recording the absorbance increase at 410 nm on a Cary 100 Scan (Varian) UV/Vis spectrophotometer, equipped with a thermostated cuvette compartment. APEH activity was expressed in IU. The APEHSs activity was measured using acetyl-Leu-pNA (0.1 mM) (Sigma) as substrate. The reaction mixture (1 mL) containing the appropriate amount of enzyme in 25 mM Tris-HCl buffer pH 7.5, was preincubated at 80°C for 2 min. Then, 0.1 mM acetyl-Leu-pNA was added and the release of p-nitroanilide was measured, following the standard assay procedure described above.
Caco-2 cells (ATCC) were cultivated in DMEM supplemented with 10% FBS, 1 mM glutamine and 100 units/mL penicillin-streptomycin at 37°C in a humidified 5% CO2 atmosphere. The cells were studied between passages 12 and 22. The cells were split using trypsin-EDTA solution and plated in 6-well plates at a density of 8×10^4 cells/mL and the medium was replaced every 2–3 days. Under these conditions, the cells reached visual confluence after 7 days and the differentiated stage two weeks later. The differentiated cells were incubated for 48 h with the different substances.
Following the treatments, the BHK and Caco-2 cells were washed three times with ice cold phosphate-buffered saline and collected immediately at 4°C in lysis buffer (1% Triton X-100, 0.1% SDS, 20 mM Tris-HCl, pH 8.0, 150 mM NaCl, 0.5% sodium deoxycholate and complete protease inhibitors [Roche]). The lysates were centrifuged at 10,000×g for 15 min at 4°C. The protein concentrations in the clear supernatants were determined (BCA protein assay reagent kit; Pierce) before their use in enzymatic assays or SDS–PAGE.
For data set [3], the system named is APEHSs. Briefly: Inhibition of S. solfataricus APEH (APEHSs), Ac-Leu-pNA substrate. The class given is biochemical, Sulfolobus solfataricus. Conditions: increasing inhibitor concentrations, Ac-Leu-pNA, pre-incubated 30 min at 80°C. The procedure: (§1) APEH activity was expressed in IU.
(§2) Protease inhibitor activities of the SsCEI peptides and the CLA isomers were carried out using a fixed amount of APEH or partially purified proteasome (3–5 nM and 0.12 mg/mL, respectively), and increasing the SsCEI and CLA isomer concentrations. Mixtures were pre-incubated for 30 min at 37°C before the addition of the substrate, and the enzymatic activities were followed as described above. Protease inhibitor activities of the SsCEI peptides and the CLA isomers were determined towards APEHSs. The protease and increasing concentrations of the inhibitors were mixed and preincubated for 30 min at 80°C before the addition of the specific substrate. The residual enzymatic activity was determined using the assay procedure described above.
(§3) All data were obtained from triplicate analyses of three different preparations. Data were presented as means ±S.D. Statistical analysis and IC50 values were calculated with the SigmaPlot 10.0 software through a non-linear curve-fitting method and using a simple binding isotherm equation. Groups were compared by Student's t test, and P<0.05 was considered as significant.

Data set [4] has as its target T1, porcine APEH (Sus scrofa, UniProt P19205).
T1 construct: mammalian APEHs purified from both porcine liver and human colon carcinoma intestinal cells (Caco-2); purchased Takara; host or cells: porcine liver
T1 sequence (P19205 1-732): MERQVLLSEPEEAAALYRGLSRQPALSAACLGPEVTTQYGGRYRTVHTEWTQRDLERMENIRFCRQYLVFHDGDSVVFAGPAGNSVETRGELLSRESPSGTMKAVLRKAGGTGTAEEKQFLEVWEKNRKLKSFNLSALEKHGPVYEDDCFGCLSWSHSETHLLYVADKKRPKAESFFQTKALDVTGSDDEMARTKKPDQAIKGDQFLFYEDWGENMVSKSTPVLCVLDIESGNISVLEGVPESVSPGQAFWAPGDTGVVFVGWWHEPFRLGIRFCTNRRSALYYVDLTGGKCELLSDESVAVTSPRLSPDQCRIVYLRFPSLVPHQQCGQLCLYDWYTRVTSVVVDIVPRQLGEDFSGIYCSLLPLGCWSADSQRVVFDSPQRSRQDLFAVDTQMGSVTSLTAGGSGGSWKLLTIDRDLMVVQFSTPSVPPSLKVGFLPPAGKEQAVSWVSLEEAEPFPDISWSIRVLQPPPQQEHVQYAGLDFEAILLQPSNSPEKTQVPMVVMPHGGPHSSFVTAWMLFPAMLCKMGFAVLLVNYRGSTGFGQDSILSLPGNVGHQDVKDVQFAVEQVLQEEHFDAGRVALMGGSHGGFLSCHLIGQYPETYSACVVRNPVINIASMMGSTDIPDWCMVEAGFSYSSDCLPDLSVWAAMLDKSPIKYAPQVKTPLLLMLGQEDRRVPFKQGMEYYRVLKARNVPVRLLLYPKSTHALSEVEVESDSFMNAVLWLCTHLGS
The data set can be described thus: Inhibition of porcine liver APEH, Ac-Ala-pNA substrate. The class given is biochemical. Conditions: Ac-Ala-pNA, pre-incubated 30 min at 37°C. The method, then:
as §1, §2, §3

Data set [5] relates to Caco-2 cells. The data set can be described thus: LDH release cytotoxicity assay in Caco-2 cells. Conditions: 48 h; for toxicity (LDH release) compared with MG132: 200 µM SsCEI 4 or t10c12-CLA, 100 µM ebelactone, MG132 10 µM. On the technique in general: LDH leaks from cells whose membrane has failed.
Experimental: The release of LDH was used as the marker for cell toxicity [48]. The culture supernatants were sampled at the end of the incubations and centrifuged (4,000×g, 5 min, and 4°C). Aliquots of the clear supernatant (10 µL) were incubated with 190 µL reaction buffer (200 mM Tris/HCl, pH 8.0, 0.7 mM p-iodonitrotetrazolium violet, 50 mM L-lactic acid, 0.3 mM phenazine methoxysulphate, 0.4 mM NAD,) for 30 min at 37°C. Absorbance was measured at 490 nm and the results were expressed as percentages of total LDH release from control cultures treated with 1% (w/v) Triton X-100 and calculated as: [(experimental value - blank value)/(total lysis -blank value)−100].
Data set [6] deals with T2, human APEH (Homo sapiens, UniProt P13798).
T2 construct: Partial purification of human APEH and proteasome was carried out from protein extracts of Caco-2 cell; endogenous in cells; host or cells: Caco-2
T2 sequence (P13798 1-732): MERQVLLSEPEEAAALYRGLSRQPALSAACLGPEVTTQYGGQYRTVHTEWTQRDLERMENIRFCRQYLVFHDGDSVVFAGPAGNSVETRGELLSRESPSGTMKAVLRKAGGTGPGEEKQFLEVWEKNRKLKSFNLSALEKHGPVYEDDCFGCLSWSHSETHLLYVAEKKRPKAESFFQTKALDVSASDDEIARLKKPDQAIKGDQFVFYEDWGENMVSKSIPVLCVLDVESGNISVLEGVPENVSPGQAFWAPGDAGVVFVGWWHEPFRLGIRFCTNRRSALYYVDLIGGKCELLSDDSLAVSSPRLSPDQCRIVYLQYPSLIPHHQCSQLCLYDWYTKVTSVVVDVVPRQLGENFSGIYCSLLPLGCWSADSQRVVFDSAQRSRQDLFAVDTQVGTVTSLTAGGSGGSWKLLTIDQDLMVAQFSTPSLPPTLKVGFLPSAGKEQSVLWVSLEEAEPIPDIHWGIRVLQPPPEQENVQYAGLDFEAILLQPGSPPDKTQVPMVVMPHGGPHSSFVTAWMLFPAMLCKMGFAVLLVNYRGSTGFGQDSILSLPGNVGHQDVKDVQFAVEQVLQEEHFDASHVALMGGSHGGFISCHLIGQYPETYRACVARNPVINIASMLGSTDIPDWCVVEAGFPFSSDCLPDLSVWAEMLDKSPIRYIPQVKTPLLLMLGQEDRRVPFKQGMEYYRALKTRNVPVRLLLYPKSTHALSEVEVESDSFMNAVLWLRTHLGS
The data set can be described thus: Inhibition of human APEH purified from Caco-2 cells. The class given is biochemical. Particulars: human APEH from Caco-2 cells, Ac-Ala-pNA; data not shown. The method, then:
APEH from Sulfolobus solfataricus was purified as previously reported. Partial purification of human APEH and proteasome was carried out from protein extracts of Caco-2 cell. Briefly, protein extracts (500 µg) were fractionated by gel filtration chromatography on a Superdex 200 PC 3.2/30 column connected to a SMART System (Pharmacia) equilibrated in buffer 50 mM Tris-HCl, pH 7.5, 100 mM NaCl, at 0.1 mL/min. The eluted fractions were assayed using the specific substrates for APEH and the proteasome. The active fractions were collected and used for further analysis.
as §1, §2

Data set [7] addresses T1, porcine APEH. The data set can be described thus: Time-dependent inhibition of APEH. The class given is biochemical. Particulars: pre-incubation at least 20 min at 37°C, then diluted 1:5 into assay mixture with substrate. The procedure: The time-dependent inhibition of SsCEI 4 and t10c12-CLA towards APEH was assessed. Mixtures containing appropriate amounts of each inhibitor and of APEH were pre-incubated for 20 min at 37°C; they were then diluted (1∶5) into the standard assay mixture, which contained the substrate only. The enzymatic activity was followed as described above. Control samples were prepared by pre-incubating the same amounts of APEH without the inhibitors and then diluted in the standard assay mixture.

Data set [8] concerns the target T1, porcine APEH. Briefly: APEH inhibition in a reaction mixture containing the entire set of proteases. The class given is biochemical. Conditions: mixture with trypsin, α-chymotrypsin, elastase, carboxypeptidase Y, subtilisin, thrombin; data not shown.
Data set [9] has as its target T1, porcine APEH. Briefly: RP-HPLC analysis of SsCEI 4 incubated with the target enzyme. The class given is in vitro ADME. Conditions: 50 mM Tris pH 7.5, 37°C, up to 2 h, RP-HPLC C18, UV, printed 4 µM SsCEI 4 and 100 µM APEH. The method, then:
The experiments were conducted at 37°C in 50 mM Tris buffer, pH 7.5. Solutions of SsCEI 4 and porcine APEH were incubated for up to 2 h at optimal concentrations (4 µM SsCEI 4 and 100 µM APEH) to guarantee a high degree of enzymatic inhibition. At specific time intervals, 195 µL aliquots were taken, and the reaction was stopped by addition of 5 µL TFA. The samples were then analysed directly by reverse-phase HPLC (Dionex BioLC) on a μBondapak C18 column (3.9×300 mm, Waters), eluted with a linear gradient (0–60% acetonitrile in 0.1% TFA) at a flow rate of 1 ml/min. Control peptide samples were incubated in the absence of the purified enzymes and run in parallel.

Data set [10] is described as follows: Enzymatic stability in 10% FBS. Conditions: method as ref 19, data not shown. The class given is in vitro ADME.
In data set [11] the test system is BHK cells. Briefly: Cytotoxicity in BHK cells. The class given is cell-based, Baby Hamster. Conditions: 100 µM, 24 h or 48 h; data not shown. The procedure: The cells were plated in 12-well plates, to a confluence of 60% for the 24-h incubations, and 40% for 48-h exposure to PIs. These treatments were initiated 24-h after the plating of the cells. Phase-contrast images of the cells were taken just before the lysis of the cells for protein analysis, using a Lica DM6000 inverted microscope.

Data set [12] concerns the target bovine α-chymotrypsin (Bos taurus, UniProt P00766). Briefly: Serine protease selectivity panel: α-chymotrypsin. Conditions: increasing peptide concentrations, hyperbolic fit (Figure S3); read-out: IC50 towards bovine α-chymotrypsin. The class given is biochemical.
Data set [13] in a line: Thermal CD spectroscopy. The class given is physicochemical. Particulars: CD 37°C to 77°C in 10°C steps, 5 mM Tris–HCl pH 7.5. The procedure: CD spectra were obtained on a Jasco J-715 spectropolarimeter with 400 µL of 8.0×10^-7 M protein in 5 mM Tris–HCl pH 7.5. Hellman quartz cells of 0.1-cm-path length were used in the far UV (190–250 nm). The temperature of the sample cell was regulated by a PTC-348 WI thermostat and thermal CD was performed from 250 to 195 nm by raising the cell temperature from 37°C to 77°C. The thermal CD spectra were signal-averaged by combining three scans and the baseline was corrected by subtracting a buffer spectrum. The samples were then cooled back to 37°C to monitor the final folding of the peptides.

Data set [14] is described as follows: Gel filtration (size-exclusion) analysis of oligomerization. The class given is physicochemical. Conditions: 100 µM peptide. The method, then: Gel filtration chromatography was performed on a BioSep SEC-S2000 column equilibrated with 50 mM phosphate buffer pH 6.8, at a flow rate of 1.0 mL/min. A standard curve was built using a set of synthetic peptides with molecular weights between 1.500 amu and 2.500 amu. For this purpose, peptide aliquots were injected onto the column and a plot of KD versus log10 molecular weights (MW) was obtained, where KD = (Ve-Vo)/(VT-Vo), Ve is the elution volume of the sample, and VT and Vo are the total and void volumes of the column, respectively.

Data set [15] is described as follows: Stability in aqueous solution. The class given is physicochemical. Conditions: at the concentrations required for CD analyses.

`CC(C)C[C@@H](C=O)NC(=O)[C@H](CC(C)C)NC(=O)[C@H](CC(C)C)NC(=O)OCc1ccccc1` [MG132] (Cbz-Leu-Leu-Leu-aldehyde): the “polyubiquitin conjugates in cell extract” value in data set [1] is given as “presence of high-molecular-mass immunoreactive species”. In data set [2] (MG132 10 µM, 48 h), the “effect on APEH activity in Caco-2 cells” value is listed as “no detectable effects”.
`CCCCCC/C=C/C=C\CCCCCCCC(=O)O` [c9t11-CLA, cis9-trans11 CLA]: the “effect on APEHSs activity” value in data set [3] is “no significant modulatory effect”. In addition, the “effect on porcine APEH activity” value in [4] is on record as “ineffective”.
`CC[C@@H](C)[C@@H](O)[C@H](C)C(=O)[C@H](C)/C=C(\C)C[C@H](C)[C@@H]1OC(=O)[C@H]1CC` [ebelactone]: the “polyubiquitin conjugates in cell extract” value in [1] is “presence of high-molecular-mass immunoreactive species”. For the same molecule, the “toxicity (LDH release) compared with MG132” value in data set [5] is given as “significantly lower than that observed in culture incubated with MG132”.
With TILAEIKNINAD-NH2 [SsCEI 4], in data set [6], the “IC50 towards human APEH relative to porcine APEH” value is on record as “Comparable”. Besides, the “inhibition of APEH after pre-incubation with the enzyme” value in [7] was 100%. In [8], the “inhibition efficiency and Ki towards APEH in presence of the entire protease set” value is “comparable to those measured in the presence of the APEH alone”. Further, the “stability of peptide incubated with APEH (degradation / adducts)” value in data set [9] is reported as “neither peptide degradation nor covalent binding with APEH occurred”. The “enzymatic stability in 10% FBS” value in data set [10] is “completely stable for at least one week”. The “cytotoxic effects in BHK cells” value in [11] was “without any cytotoxic effects”. Also, the “decrease of APEH activity in Caco-2 cells” value in [2] (200 µM, 48 h (maximum effect)) is 70%. Moreover, the “toxicity (LDH release) compared with MG132” value in data set [5] is reported as “significantly lower than that observed in culture incubated with MG132”. Further, in [5] (up to highest concentration 200 µM), the “cytotoxic effect (LDH activity levels)” value was “not associated with any cytotoxic effect”.
By IC50 is commonly meant the midpoint of a concentration-inhibition curve. Take TILLEIKNINAD-NH2 [SsCEI 2]: the “IC50 towards human APEH relative to porcine APEH” value in data set [6] is recorded as “Comparable”. The IC50 in data set [12] is 21.9 ± 6.4 µM. In addition, the “structural stability with temperature (CD)” value in data set [13] is recorded as “considerable structural stability”.
YAIDTILA EIKNINAD [SsCEI 3]: the “effect on APEHSs activity” value in [3] is recorded as “no detectable decrease”. Moreover, the “Measured mass value (apparent MW by gel filtration)” value in data set [14] (BioSep SEC-S2000, 50 mM phosphate pH 6.8, Da±SD, three independent determinations) came to 2012±150 Da. The oligomerization state entry in data set [14] (size-exclusion chromatography) is listed as “essentially monomers”. Further, in data set [13], the “structural stability with temperature (CD)” value is “considerable structural stability”.
In the case of YAIDTILLEIKNINAD-NH2 [SsCEI 1], the “stability in aqueous solution” value in data set [15] is given as “poor stability in aqueous solution”.
